# From publication PMC6370202, “The catabolism of 3,3’-thiodipropionic acid in Variovorax paradoxus strain TBEA6: A proteomic analysis” (PLoS ONE, 2019)
# Legend:
# [1] = molecular target: T1, PctRe (propionyl-CoA transferase of Ralstonia eutropha) (Cupriavidus necator, UniProt Q0K874); assay: enzymatic CoA transfer, product by HPLC/MS; format: biochemical; settings: 2 mM TDP, 1 mM acetyl-CoA, 20 ug PctRe in 1 ml, 100 mM Tris/HCl pH 8.0, 30 °C, 45 min
# T1 construct: gene pct; recombinant from pET-19b::pctRe in E. coli BL21 (DE3) pLysS; N-terminal His-tag; Ni-Sepharose purified
# T1 sequence (Q0K874 1-542): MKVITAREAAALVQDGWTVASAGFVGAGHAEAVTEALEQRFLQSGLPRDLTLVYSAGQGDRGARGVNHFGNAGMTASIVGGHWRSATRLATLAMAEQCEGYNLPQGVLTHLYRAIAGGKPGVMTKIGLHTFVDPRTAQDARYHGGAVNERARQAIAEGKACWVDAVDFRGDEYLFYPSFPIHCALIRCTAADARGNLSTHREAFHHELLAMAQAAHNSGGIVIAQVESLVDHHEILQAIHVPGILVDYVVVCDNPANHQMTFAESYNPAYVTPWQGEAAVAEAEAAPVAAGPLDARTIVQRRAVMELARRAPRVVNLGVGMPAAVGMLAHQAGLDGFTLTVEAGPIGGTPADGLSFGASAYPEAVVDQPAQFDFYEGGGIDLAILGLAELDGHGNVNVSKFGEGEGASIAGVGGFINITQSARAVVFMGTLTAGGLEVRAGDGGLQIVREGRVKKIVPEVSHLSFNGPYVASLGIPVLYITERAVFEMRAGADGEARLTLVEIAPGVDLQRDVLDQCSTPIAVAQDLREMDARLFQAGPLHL
# Ech-20 (VPARA_05520) = molecular target: T2, Ech-20 (VPARA_05520) (Variovorax paradoxus, UniProt A0A0H2MCT8); assay: thermal shift assay, SYPRO Orange; format: binding; settings: 2 uM protein, 2 mM ligand, 100 mM Tris/HCl pH 8.0; increased stability; no shift with TDP
# T2 construct: recombinant from pET-32a(+)::ech-20 in E. coli BL21 (DE3) pLysS; Ni-Sepharose purified
# T2 sequence (A0A0H2MCT8 1-154): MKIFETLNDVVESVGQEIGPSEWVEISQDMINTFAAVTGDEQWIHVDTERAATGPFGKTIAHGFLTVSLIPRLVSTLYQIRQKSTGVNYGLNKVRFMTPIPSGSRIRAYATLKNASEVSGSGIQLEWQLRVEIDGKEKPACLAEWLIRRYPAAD
smiles,measurement,setting,value
CC(=O)SCCNC(=O)CCNC(=O)[C@H](O)C(C)(C)COP(=O)(O)OP(=O)(O)OC[C@H]1O[C@@H](n2cnc3c(N)ncnc32)[C@H](O)[C@@H]1OP(=O)(O)O [acetyl-CoA],"enzymatic CoA transfer, product by HPLC/MS",[1]; CoA donor,transfer of CoA from acetyl-CoA to TDP was accomplished using recombinant PctRe
CC(C)(COP(=O)(O)OP(=O)(O)OC[C@H]1O[C@@H](n2cnc3c(N)ncnc32)[C@H](O)[C@@H]1OP(=O)(O)O)[C@@H](O)C(=O)NCCC(=O)NCCSC(=O)CCSCCC(=O)O [TDP-CoA],shift in the melting temperature,Ech-20 (VPARA_05520),a shift in the melting temperature of Ech-20 in the presence of TDP-CoA was detected
O=C(O)CCSCCC(=O)O [TDP],"enzymatic CoA transfer, product by HPLC/MS",[1],transfer of CoA from acetyl-CoA to TDP was accomplished using recombinant PctRe
